2 molecules from ChEMBL document CHEMBL4400561, “Isolation, structural elucidation, and insights into the anti-inflammatory effects of triterpene saponins from the leaves of Stauntonia hexaphylla” (Bioorg Med Chem Lett, 2019) can be followed below.

The subject of data set [1] is RAW264.7. Nature of the data set: Anti-inflammatory activity in mouse LPS-stimulated RAW264.7 cells assessed as decrease in IL6 levels preincubated for 1 hr followed by LPS-stimulation and measured after 12 hrs by ELISA. It counts as functional, cell-based.
Data set [2] deals with RAW264.7. Nature of the data set: Anti-inflammatory activity in mouse LPS-stimulated RAW264.7 cells assessed as decrease in iNOS protein levels preincubated for 1 hr followed by LPS-stimulation and measured after 16 hrs by Western blot analysis. It counts as functional, cell-based. Background: In western blotting, separated proteins are transferred to a membrane and probed.

Data set [3] relates to RAW264.7. Nature of the data set: Anti-inflammatory activity in mouse LPS-stimulated RAW264.7 cells assessed as decrease in IL1beta levels preincubated for 1 hr followed by LPS-stimulation and measured after 12 hrs by ELISA. It counts as functional, cell-based. For orientation: In an ELISA, binding on a coated surface is turned into a signal by an enzyme label.
Data set [4] concerns RAW264.7. The data set can be described thus: Anti-inflammatory activity in mouse LPS-stimulated RAW264.7 cells assessed as decrease in COX2 protein levels preincubated for 1 hr followed by LPS-stimulation and measured after 16 hrs by Western blot analysis. It counts as functional, cell-based.
The test system of data set [5] is RAW264.7. The data set can be described thus: Anti-inflammatory activity in mouse RAW264.7 cells assessed as inhibition of LPS-induced NO production preincubated for 1 hr followed by LPS-stimulation and measured after 18 hrs by Griess reagent-based assay. It counts as functional, cell-based. In general terms: Griess reagent forms a coloured azo dye with nitrite.

The subject of data set [6] is RAW264.7. Nature of the data set: Anti-inflammatory activity in mouse LPS-stimulated RAW264.7 cells assessed as decrease in PGE2 levels at preincubated for 1 hr followed by LPS-stimulation and measured after 12 hrs by ELISA. Format: functional, cell-based.
Data set [7] relates to RAW264.7. Nature of the data set: Anti-inflammatory activity in mouse LPS-stimulated RAW264.7 cells assessed as decrease in TNFalpha levels preincubated for 1 hr followed by LPS-stimulation and measured after 12 hrs by ELISA. Format: functional, cell-based.
Data set [8] relates to RAW264.7. Nature of the data set: Cytotoxicity against mouse RAW264.7 cells at anti-inflammatory IC50 after 19 hrs by MTT assay. Format: cell-based. The conditions noted are these: raw264.7, 19 h.

By IC50 is commonly meant the concentration that gives 50% inhibition. With `C[C@@H]1O[C@@H](O[C@H]2[C@H](O[C@H]3CC[C@]4(C)[C@H]5CC=C6[C@@H]7CC(C)(C)CC[C@]7(C(=O)O)CC[C@@]6(C)[C@]5(C)CC[C@H]4C3(C)C)OC[C@H](O[C@@H]3O[C@H](CO)[C@@H](O)[C@H](O)[C@H]3O)[C@@H]2O)[C@H](O)[C@H](O)[C@H]1O` [HEDERACOLCHISIDE A1], the inhibition entry in data set [1], in data set [2], in data set [3], in data set [4], in data set [6] and in data set [7] was “Dose-dependent effect” in each case. Also, in data set [5], the IC50 came out at 0.59 µM. Besides, in data set [8], the Activity entry is given as “Non-Toxic”.

`CC1(C)CC[C@]2(C(=O)O)CC[C@]3(C)C(=CC[C@@H]4[C@@]5(C)CC[C@H](O[C@@H]6OC[C@H](O)[C@H](O)[C@H]6O[C@@H]6O[C@H](CO)[C@@H](O)[C@H](O)[C@H]6O)C(C)(C)[C@@H]5CC[C@]43C)[C@@H]2C1`: the inhibition result in data set [1], in data set [2], in data set [3], in data set [4], in data set [6] and in data set [7] was “Dose-dependent effect” throughout. Moreover, in data set [5], the IC50 was 1.82 µM. The Activity result in data set [8] is listed as “Non-Toxic”.
